In ChEMBL document CHEMBL1142926, “A new modification of anti-tubercular active molecules” (Bioorg Med Chem, 2007):
In brackets after ≈: the same amount, converted by molar mass.

Assays:
Mycobacterium kansasii [1] = experiment: Antimycobacterial activity against Mycobacterium kansasii 235/80 after 21 days; assay type: functional; details: 504 h
[2] = test system: Mycobacterium tuberculosis; experiment: Antimycobacterial activity against Mycobacterium tuberculosis H37Rv; assay type: functional, organism-based
Mycobacterium avium [3] = experiment: Antimycobacterial activity against Mycobacterium avium 330/88 after 21 days; assay type: functional; details: 504 h
[4] = test system: Mycobacterium tuberculosis; experiment: Antimycobacterial activity against Mycobacterium tuberculosis 331/88 after 14 days; assay type: functional; details: 336 h
Mycobacterium kansasii [5] = experiment: Antimycobacterial activity against Mycobacterium kansasii 6509/96 after 21 days; assay type: functional; details: 504 h
Mycobacterium kansasii [6] = experiment: Antimycobacterial activity against Mycobacterium kansasii 6509/96 after 14 days; assay type: functional; details: 336 h
Mycobacterium kansasii [7] = experiment: Antimycobacterial activity against Mycobacterium kansasii 235/80 after 14 days; assay type: functional; details: 336 h
Mycobacterium kansasii [8] = experiment: Antimycobacterial activity against Mycobacterium kansasii 235/80 after 7 days; assay type: functional; details: 168 h
[9] = test system: Mycobacterium tuberculosis; experiment: Antimycobacterial activity against Mycobacterium tuberculosis H37Rv at 6.25 ug/mL; assay type: functional
Mycobacterium avium [10] = experiment: Antimycobacterial activity against Mycobacterium avium 330/88 after 14 days; assay type: functional; details: 336 h
[11] = test system: Mycobacterium tuberculosis; experiment: Antimycobacterial activity against Mycobacterium tuberculosis 331/88 after 21 days; assay type: functional; details: 504 h
[12] = Lipophilicity, log K of the compound; assay type: physicochemical; details: octanol/water
Mycobacterium kansasii [13] = experiment: Antimycobacterial activity against Mycobacterium kansasii 6509/96 after 7 days; assay type: functional; details: 168 h
[14] = Stability after 14 days; assay type: physicochemical; details: read-out: Stability
[15] = Stability after 21 days; assay type: physicochemical; details: read-out: Stability
[16] = Stability after 7 days; assay type: physicochemical; details: read-out: Stability
[17] = Stability within 7 days; assay type: physicochemical; details: 168 h

| Structure (SMILES) | MIC (Mycobacterium kansasii [1]) | MIC [2] | MIC (Mycobacterium avium [3]) | MIC [4] | MIC (Mycobacterium kansasii [5]) | MIC (Mycobacterium kansasii [6]) | MIC (Mycobacterium kansasii [7]) | MIC (Mycobacterium kansasii [8]) | inhibition at 6.25 µg/mL [9] | MIC (Mycobacterium avium [10]) | MIC [11] | log K [12] | MIC (Mycobacterium kansasii [13]) | IC50 [2] | remaining at 336 h [14] | remaining at 504 h [15] | remaining at 168 h [16] | Activity [17] |
| --- | --- | --- | --- | --- | --- | --- | --- | --- | --- | --- | --- | --- | --- | --- | --- | --- | --- | --- |
| CCC(CO)N1CCN(C(CC)CO)C1OS(=O)(=O)c1ccc(C)cc1 (centres undefined) | 1000 µM (≈ 387 µg/mL) | > 6.25 µg/mL | 1000 µM (≈ 387 µg/mL) | 250 µM (≈ 96.6 µg/mL) | 1000 µM (≈ 387 µg/mL) | 500 µM (≈ 193 µg/mL) | 1000 µM (≈ 387 µg/mL) | 500 µM (≈ 193 µg/mL) | 0% | 500 µM (≈ 193 µg/mL) | 500 µM (≈ 193 µg/mL) | 0.243 | 250 µM (≈ 96.6 µg/mL) | – | – | – | – | – |
| CN(C)/C=N/C(=O)c1cnccn1 | – | > 6.25 µg/mL | – | – | – | – | – | – | 1% | – | – | 0.1718 | – | – | – | – | – | – |
| O=C(N/N=C/N1CCOCC1)c1ccncc1 | – | > 6.25 µg/mL | – | – | – | – | – | – | 74% | – | – | 0.2653 | – | – | – | – | – | – |
| O=C(N/N=C/NCc1ccccn1)c1ccncc1 | 1000 µM (≈ 255 µg/mL) | 6.25 µg/mL (≈ 24.5 µM) | > 1000 µM | 16 µM (≈ 4.08 µg/mL) | 125 µM (≈ 31.9 µg/mL) | 125 µM (≈ 31.9 µg/mL) | 1000 µM (≈ 255 µg/mL) | 1000 µM (≈ 255 µg/mL) | 92% | 1000 µM (≈ 255 µg/mL) | 32 µM (≈ 8.17 µg/mL) | 0.3343 | 62.5 µM (≈ 16 µg/mL) | > 10 µg/mL | – | – | – | – |
| O=C(N/N=C/NCc1ccccc1)c1ccncc1 | 1000 µM (≈ 254 µg/mL) | > 6.25 µg/mL | > 1000 µM | 32 µM (≈ 8.14 µg/mL) | 250 µM (≈ 63.6 µg/mL) | 250 µM (≈ 63.6 µg/mL) | 1000 µM (≈ 254 µg/mL) | 500 µM (≈ 127 µg/mL) | 93% | 1000 µM (≈ 254 µg/mL) | 65.5 µM (≈ 16.7 µg/mL) | 0.5426 | 125 µM (≈ 31.8 µg/mL) | > 10 µg/mL | – | – | – | – |
| O=C(N/N=C\N1CCN(c2cc3c(cc2F)c(=O)c(C(=O)O)cn3C2CC2)CC1)c1ccncc1 | 8 µM (≈ 3.83 µg/mL) | 3.13 µg/mL (≈ 6.54 µM) | 250 µM (≈ 120 µg/mL) | 2 µM (≈ 0.957 µg/mL) | 8 µM (≈ 3.83 µg/mL) | 4 µM (≈ 1.91 µg/mL) | 4 µM (≈ 1.91 µg/mL) | 2 µM (≈ 0.957 µg/mL) | 99% | 125 µM (≈ 59.8 µg/mL) | 4 µM (≈ 1.91 µg/mL) | 0.9159 | 2 µM (≈ 0.957 µg/mL) | – | 10% | 3% | 30% | – |
| O=C(N/N=C/NNC(=O)c1ccncc1)c1ccncc1 | – | 0.39 µg/mL (≈ 1.37 µM) | – | – | – | – | – | – | 96% | – | – | 0.3027 | – | > 62.5 µg/mL | 4% | 1% | 19% | – |
| O=C(NN/C=N/C(=O)c1cnccn1)c1ccncc1 | 1000 µM (≈ 270 µg/mL) | 0.1 µg/mL (≈ 0.37 µM) | 125 µM (≈ 33.8 µg/mL) | 4 µM (≈ 1.08 µg/mL) | 16 µM (≈ 4.32 µg/mL) | 8 µM (≈ 2.16 µg/mL) | 1000 µM (≈ 270 µg/mL) | 500 µM (≈ 135 µg/mL) | 94% | 125 µM (≈ 33.8 µg/mL) | 8 µM (≈ 2.16 µg/mL) | 0.3562 | 8 µM (≈ 2.16 µg/mL) | > 10 µg/mL | – | – | – | Not Active |
| CN(C)/C=N/NC(=O)c1ccncc1 | 1000 µM (≈ 192 µg/mL) | > 6.25 µg/mL | > 1000 µM | 16 µM (≈ 3.08 µg/mL) | 500 µM (≈ 96.1 µg/mL) | 250 µM (≈ 48.1 µg/mL) | 500 µM (≈ 96.1 µg/mL) | 250 µM (≈ 48.1 µg/mL) | 1% | 1000 µM (≈ 192 µg/mL) | 16 µM (≈ 3.08 µg/mL) | 0.252 | 125 µM (≈ 24 µg/mL) | – | – | – | – | – |
| O=C(N/N=C/Nc1ccc(C(=O)O)c(O)c1)c1ccncc1 | 1000 µM (≈ 300 µg/mL) | 0.39 µg/mL (≈ 1.3 µM) | 125 µM (≈ 37.5 µg/mL) | 4 µM (≈ 1.2 µg/mL) | 250 µM (≈ 75.1 µg/mL) | 250 µM (≈ 75.1 µg/mL) | 1000 µM (≈ 300 µg/mL) | 500 µM (≈ 150 µg/mL) | 96% | 125 µM (≈ 37.5 µg/mL) | 8 µM (≈ 2.4 µg/mL) | 0.366 | 125 µM (≈ 37.5 µg/mL) | > 62.5 µg/mL | – | – | – | Not Active |
| O=C(/N=C/Nc1ccc(C(=O)O)c(O)c1)c1cnccn1 | 32 µM (≈ 9.16 µg/mL) | 3.13 µg/mL (≈ 10.9 µM) | 62.5 µM (≈ 17.9 µg/mL) | 8 µM (≈ 2.29 µg/mL) | 32 µM (≈ 9.16 µg/mL) | 16 µM (≈ 4.58 µg/mL) | 32 µM (≈ 9.16 µg/mL) | 16 µM (≈ 4.58 µg/mL) | 98% | 32 µM (≈ 9.16 µg/mL) | 16 µM (≈ 4.58 µg/mL) | 0.3695 | 8 µM (≈ 2.29 µg/mL) | > 10 µg/mL | 1% | 0.1% | 10% | – |
| O=C(/N=C/N1CCN(c2cc3c(cc2F)c(=O)c(C(=O)O)cn3C2CC2)CC1)c1cnccn1 | 4 µM (≈ 1.86 µg/mL) | 0.78 µg/mL (≈ 1.68 µM) | 125 µM (≈ 58.1 µg/mL) | 2 µM (≈ 0.929 µg/mL) | 4 µM (≈ 1.86 µg/mL) | 2 µM (≈ 0.929 µg/mL) | 2 µM (≈ 0.929 µg/mL) | 1 µM (≈ 0.464 µg/mL) | 100% | 62.5 µM (≈ 29 µg/mL) | 4 µM (≈ 1.86 µg/mL) | 0.97 | 2 µM (≈ 0.929 µg/mL) | > 10 µg/mL | – | – | – | Not Active |
| O=C(O)c1cn(C2CC2)c2cc(N3CCNCC3)c(F)cc2c1=O [CIPROFLOXACIN] | – | 2 µg/mL (≈ 6.04 µM) | – | 16 µM (≈ 5.3 µg/mL) | – | – | – | – | 98% | – | – | – | – | > 10 µg/mL | – | – | – | – |
| NNC(=O)c1ccncc1 [ISONIAZID] | > 250 µM | 0.025 µg/mL (≈ 0.182 µM) | > 250 µM | 1 µM (≈ 0.137 µg/mL) | 4 µM (≈ 0.549 µg/mL) | 4 µM (≈ 0.549 µg/mL) | > 250 µM | > 250 µM | – | > 250 µM | 1 µM (≈ 0.137 µg/mL) | – | 2 µM (≈ 0.274 µg/mL) | > 100 µg/mL | – | – | – | – |
| NC(=O)c1cnccn1 [PYRAZINAMIDE] | > 128 µM | 6 µg/mL (≈ 48.7 µM) | > 128 µM | 8 µM (≈ 0.985 µg/mL) | – | – | > 128 µM | > 128 µM | – | > 128 µM | 8 µM (≈ 0.985 µg/mL) | – | – | – | – | – | – | – |
